Measured values as given in US5258406A, “Sulfonimidamides” (priority 1992, dated 1993).

Tested on: 6C3HED lymphosarcoma
Test: animal or person
Format: in vivo
Details: for inhibition in vivo at 150 mg/kg: read-out: % inhibition of tumor growth, oral, 150 mg/kg, BIDX 8; for inhibition in vivo at 300 mg/kg: read-out: % inhibition of tumor growth, oral, 300 mg/kg, BIDX 8; for Tox/Tot (mice which died / total): oral, BIDX 8; for inhibition in vivo at 100 mg/kg: read-out: % inhibition of tumor growth, oral, 100 mg/kg, BIDX 8
Method: The compounds were tested in C3H mice bearing a 6C3HED lymphosarcoma, also known as the Gardner lymphosarcoma (GLS), and in a variety of human tumor xenografts in CD1 nu/nu mice, including CX-1, LX-1, HXGC3, and VRC5. The 6C3HED lymphosarcoma was obtained from the Division of Cancer Treatment, National […] Institute, Tumor Bank, maintained at E. G. and G. Mason Research (Worcester, Mass.). The CX-1 human colon carcinoma and the LX-1 human lung carcinoma xenografts were obtained from the National Cancer Institute. The HXGC3 and VRC5 human colon xenografts were obtained from Dr. P. J. Houghton, St. Jude Children's Hospital in Memphis (see Br. J. Cancer, 37, 213 (1978)). First passage tumor was stored in liquid nitrogen using standard techniques. The transplanted tumor was reestablished from the Tumor Bank every six months or as needed. The tumor was maintained by serial passage twice weekly in C3H mice.
In the procedure the tumor was removed from passage animals and minced into 1- to 3-mm square fragments using sterile techniques. Tumor pieces were checked for sterility using both Antibiotic Medium 1 and Brain Heart Infusion (Difco, Detroit, Mich.). Recipient mice were shaved and tumor pieces were implanted subcutaneously in the auxiliary region by trocar. Drug therapy on the appropriate schedule was initiated on the day after tumor implant for 6C3HED and after a seven (7) day delay for xenografts (or other delay as noted in Table 2). The compound being tested was mixed with 2.5% Emulphor EL620 from GAF Corporation (1:40 dilution in saline). Food and water were provided ad libitium. The drug was administered orally in 0.5 ml of 2.5% Emulphor (unless otherwise indicated). The tumor was measured the day after treatment ended with two dimensional measurements (width and length) of the tumor taken using automated digital calipers interfaced to a microcomputer. Approximate weight for the tumor was calculated using the following formula [Worzalla, J. F., et al., Invest. New Drugs, 8, 241 (1990], (tumor weight in mg)=(width in mm)^2 ×(length in mm)/2.
At least one control group of an equal number of mice was treated with the same volume of 2.5% Emulphor only. The percent inhibition was determined by subtracting the ratio of the mean tumor size of the test group relative to the control group from one and multiplying the result times 100.
The results of several experiments in mice bearing a 6C3HED lymphosarcoma (or other tumor where indicated) when the indicated compounds were administered are provided in Table 2. In Table 2, column 1 gives the Example number of the compound used, column 2 lists the dose level in mg/kg, column 3 provides the percent inhibition of tumor growth, column 4 gives the number of mice which died relative to the total number of animals in the group, column 5 gives the method of administration of the compound, and column 6 gives the dosage schedule. The protocol used with other tumors was the same as with the 6C3HED lymphosarcoma.

SMILES | inhibition in vivo at 150 mg/kg (Mus musculus, 6C3HED, po) [%] | inhibition in vivo at 300 mg/kg (Mus musculus, 6C3HED, po) [%] | Tox/Tot (mice which died / total) (150 mg/kg) | Tox/Tot (mice which died / total) (300 mg/kg) | inhibition in vivo at 100 mg/kg (Mus musculus, 6C3HED, po) [%] | inhibition in vivo at 200 mg/kg (Mus musculus, 6C3HED, po, read-out: % inhibition of tumor growth, oral, 200 mg/kg, BIDX 8) [%] | Tox/Tot (mice which died / total) (100 mg/kg) | Tox/Tot (mice which died / total) (200 mg/kg) | inhibition in vivo at 6.25 mg/kg (Mus musculus, 6C3HED, po, read-out: % inhibition of tumor growth, oral, 6.25 mg/kg, BIDX 8) [%] | inhibition in vivo at 12.5 mg/kg (Mus musculus, 6C3HED, po, read-out: % inhibition of tumor growth, oral, 12.5 mg/kg, BIDX 8) [%] | inhibition in vivo at 25 mg/kg (Mus musculus, 6C3HED, po, read-out: % inhibition of tumor growth, oral, 25 mg/kg, BIDX 8) [%] | inhibition in vivo at 50 mg/kg (Mus musculus, 6C3HED, po, read-out: % inhibition of tumor growth, oral, 50 mg/kg, BIDX 8) [%] | Tox/Tot (mice which died / total) (6.25 mg/kg) | Tox/Tot (mice which died / total) (12.5 mg/kg) | Tox/Tot (mice which died / total) (25 mg/kg) | Tox/Tot (mice which died / total) (50 mg/kg)
CC(=O)N(C(=O)N=[S+]([O-])(c1ccc(C)cc1)N(C)C(C)=O)c1ccc(Cl)cc1 (stereo not shown) [Example 17] | 83 | 96 | 0/10 | 0/10 | – | – | – | – | – | – | – | – | – | – | – | –
Cc1cc(C)cc(S(N)(=O)=NC(=O)Nc2ccc(Cl)cc2)c1 (stereo not shown) [Example 39] | – | – | – | – | 44 | 77 | 0/10 | 0/10 | – | – | – | – | – | – | – | –
Cc1ccc(S(=O)(=NC(=O)Nc2ccc(Cl)cc2)NCc2ccccc2)cc1 (stereo not shown) [Example 12] | 73 | 87 | 0/9 | 1/10 | – | – | – | – | – | – | – | – | – | – | – | –
CC(=O)N(C)S(=O)(=NC(=O)Nc1ccc(Cl)cc1)c1ccc(C)cc1 (stereo not shown) [Example 16, N-[[(4-chlorophenyl)amino]carbonyl]-N'-acetyl-N'-methyl-4-methylbenzenesulfonimidamide] | 98 | 99 | 1/10 | 1/10 | – | – | – | – | – | – | – | – | – | – | – | –
CCc1ccc(S(=N)(=O)NC(=O)Nc2ccc(Cl)cc2)cc1 (stereo not shown) [Example 33, N-[[(4-chlorophenyl)amino]carbonyl]-4-ethylbenzenesulfonimidamide] | 100 | 100 | 8/10 | 8/10 | 99 | – | 0/10 | – | 36 | 60 | 91 | 98 | 0/10 | 0/9 | 2/10 | 1/10
CCCCCCNS(=O)(=NC(=O)Nc1ccc(Cl)cc1)c1ccc(C)cc1 (stereo not shown) [Example 9] | 65 | 79 | 0/10 | 2/10 | – | – | – | – | – | – | – | – | – | – | – | –
